Where two headings read alike, the source gives them in different places. One block for each molecule: values may come before it.
Test system: human sperm motility
Assay: Computer-assisted sperm analysis (CASA) of human sperm motility
Assay type: cell-based
Protocol: In another embodiment, a computer-assisted sperm analysis (CASA) can be used as a live cell compound screen for determining the effect of compounds on human sperm motility. Additionally, to facilitate the IC50 evaluation of compounds using different ejaculates, reducing inter-assay variation due to differences in sperm quality in different semen samples, an index of relative motility inhibition (RMI) was developed.
This is calculated as: RMI=[% motility*VSL]; percentage of motile sperm (% motility) or the percentage of progressively motile sperm (% progressive motility, RPMI) multiplied by the straight-line velocity (VSL); the average velocity measured in a straight line from the beginning to the end of a track in μm/sec.
Normalized RMI can be calculated by dividing the RMI of each experimental condition by its respective DMSO control.
Computer-assisted sperm analysis (CASA) was used as a live cell compound screen for determining the effect of compounds on human sperm motility. Computer-assisted sperm analysis (CASA) was performed using the approach taught in Mitra et al., Biology of Reproduction, Vol. 82, p 491 (2010), to determine the parameters of the control versus compound-treated spermatozoa. The parameters measured are: average pathway velocity (VAP: the average velocity of the smoothed cell path in 1 m/sec), the straight-line velocity (VSL: the average velocity measured in a straight line from the beginning to the end of track in 1 m/sec), the curvilinear velocity (VCL: the average velocity measured over the actual point-to-point track of the cell in 1 m/sec), the lateral head amplitude (ALH: amplitude of lateral head displacement in 1 m), the beat cross-frequency (BCF: frequency of sperm head crossing the sperm average path in Hz), the straightness (STR: the average value of the ratio VSL/VAP in %), and the linearity (LIN: the average value of the ratio VSL/VCL in %). The sperm motility parameters are assessed in pre-warmed (37° C.) two- or four-chambered 20-mm Leja slides, loading 5 μL or 2 μL, respectively, of the samples in each chamber and immediately using CASA. This computerized measuring device included a phase-contrast microscope (Olympus CX41), a camera, a mini-therm stage warmer, an image digitizer, and a computer to store and analyze data. The software used for data analysis is the HTR Ceros 12.3 (Hamilton-Thorne Biosciences). A range of 13 to 20 fields are scanned from each chamber. Progressive cells had to have a minimum of 25 μm/sec VAP and 80% of STR.
To facilitate the IC50 evaluation of compounds using different ejaculates, reducing inter-assay variation due to differences in sperm quality in different semen samples, an index of relative motility inhibition (RMI) was developed. This is calculated as: RMI=[% motility*VSL]; percentage of motile sperm (% motility) or the percentage of progressively motile sperm (% progressive motility, RPMI) multiplied by the straight-line velocity (VSL); the average velocity measured in a straight line from the beginning to the end of a sperm track in μm/sec. Normalized RMI (RPMI) was calculated by dividing the RMI of each experimental condition by its respective DMSO control.
The analysis of sperm motility was carried out with computer-assisted sperm analysis (CASA) (Ceros version 12.3 software; Hamilton-Thorne), using the techniques taught in Mitra et al., Biology of Reproduction, Vol. 82, p 491 (2010).

IC50 (Homo sapiens, Sperm, read-out: CASA): 11.4 µM
Molecule: CCOC(=O)CSc1nc(=O)c(NCC(=O)OC)n[nH]1 [Compound B4, methyl N-{3-[(2-ethoxy-2-oxoethyl)sulfanyl]-5-oxo-2,5-dihydro-1,2,4-triazin-6-yl}glycinate]

IC50 (Homo sapiens, Sperm, FIG. 10, RMI using % progressive motility, read-out: IC50 in terms of progressive motility): ~3.4 µM
Molecule: COC(=O)NNc1nc(Nc2ccc(NC(=O)OC)c(O)c2)nc(SCC(C)=O)n1 [EP012]

IC50 (FIGS. 3 and 4, read-out: IC50, CASA, RMI (relative motility)): ~9 µM
EC50 (calculated EC50 value, read-out: EC50 for inhibiting sperm motility): 8.8 µM
B1: SEMG1: semenogelin protein that binds EPPIN and inhibits progressive motility of ejaculate spermatozoa (protein, UniProt P04279 24-462, looked up)
Semenogelin-1: QKGGSKGRLPSEFSQFPHGQKGQHYSGQKGKQQTESKGSFSIQYTYHVDANDHDQSRKSQQYDLNALHKTTKSQRHLGGSQQLLHNKQEGRDHDKSKGHFHRVVIHHKGGKAHRGTQNPSQDQGNSPSGKGISSQYSNTEERLWVHGLSKEQTSVSGAQKGRKQGGSQSSYVLQTEELVANKQQRETKNSHQNKGHYQNVVEVREEHSSKVQTSLCPAHQDKLQHGSKDIFSTQDELLVYNKNQHQTKNLNQDQQHGRKANKISYQSSSTEERRLHYGENGVQKDVSQSSIYSQTEEKAQGKSQKQITIPSQEQEHSQKANKISYQSSSTEERRLHYGENGVQKDVSQRSIYSQTEKLVAGKSQIQAPNPKQEPWHGENAKGESGQSTNREQDLLSHEQKGRHQHGSHGGLDIVIIEQEDDSDRHLAQHLNNDRNPLFT

From US10472334B2, “Small molecules for inhibiting male fertility” (The University of North Carolina at Chapel Hill, priority 2014, dated 2019)
